{
  "source": "patent US12251478B2",
  "about": "(Arizona Board of Regents on behalf of Arizona State …, priority 2019, dated 2025)",
  "key": {"acute wounds": {"tested_on": "acute wounds", "test": "Acute wound healing, full-thickness punch biopsy wound model in immunocompetent mice", "type": "in vivo, BALB/c mice", "source_text": "(§1) The histamine composition was applied topically on 5-millimeter mid-dorsal full thickness wounds and covered with either Tegaderm™ (transparent film dressing) or a silk dressing and irradiated with 800 nm near infrared laser (NIR) light.\n(§2) Post-wounding, the mice were recovered for 7-11 days and their healing kinetics were monitored for different treatment groups.\n(§3) An example protocol is as follows. Full-thickness punch biopsy dorsal wounds were created on mice, bioactive wound dressing applied, and the wounds were splinted to prevent wound closure by contraction. Either immunomodulator molecule was delivered on the day of wounding or a later time-point to accelerate wound healing.\nFIG. 1 includes images of a wound closure procedure, which was performed with BALB/c mice (about 8-10 weeks old), with a wound size of about 5 mm (n=10), and with a histamine concentration of 3.4 mg/kg per mouse.\nAdditionally, Elastin-Like Polypeptide (ELP) was used alone as a control. We tested whether ELP in itself influenced healing efficacy. These studies were performed in BALB/c mice (acute wounds), 5 mm wounds, ELP concentration 2 μM (per wound/mouse). Histamine and GFNPs concentration were 3.4 mg/kg and 2 μM, respectively. Histamine and GFNPs concentration were same as previous reported studies. The GFNPs used in this study is SDF1-ELP.\nA histamine double dosage control (e.g., two sequential dosage of histamine) was investigated. […] These studies were performed in BALB/c mice (acute wounds) and in 5 mm wounds. Histamine and GFNPs concentration were 3.4 mg/kg and 2 μM, respectively. Histamine and GFNPs concentration were same as previous reported studies. The GFNPs used in this study is SDF1-ELP. We delivered histamine in the following manner: Histamine along with silk fibroin dressing on Day 0 post wounding (like previous studies); Histamine delivered on Day 3 post wounding. Wounds were treated with PBS and silk fibroin film alone on Day 0; Histamine along with silk fibroin on Day 0 post wounding+ second dose of histamine on Day 3 post wounding delivered using subcutaneous injection; and Histamine along with silk fibroin on Day 0 post wounding+ GFNPs delivered sequentially on Day 3 post wounding."}, "[1]": {"tested_on": "acute and slow healing diabetic wounds", "test": "Full-thickness punch biopsy wound model, statements covering acute and diabetic wounds together", "type": "in vivo, mice", "details": "histamine applied topically on 5 mm full thickness wounds, covered with Tegaderm or silk dressing, 800 nm NIR laser", "source_text": "as §1, §2, §3"}},
  "data": [
    {"compound": "NCCc1c[nH]cn1", "note": "[histamine]", "values": [
      {"measurement": "contractile activity", "setting": "acute wounds; acute wound model", "value": "higher contractile activity"},
      {"measurement": "neovascularization", "setting": "acute wounds; acute wound model", "value": "higher neovascularization"},
      {"measurement": "re-epithelialization", "setting": "acute wounds; acute wound model", "value": "higher re-epithelialization"},
      {"measurement": "reduction of the dermal gap of a wound", "setting": "acute wounds; acute wound model", "value": "improves reduction of the dermal gap"},
      {"measurement": "resolution of inflammation", "setting": "acute wounds; acute wound model", "value": "better solution of inflammation"},
      {"measurement": "tissue strength / ultimate tensile strength (UTS) of healed skin", "setting": "acute wounds; acute wounds, day 7, compared between dressings with histamine or saline", "value": "higher skin strength recovery"},
      {"measurement": "tissue biomechanical recovery", "setting": "[1]", "value": "improved tissue biomechanical recovery"},
      {"measurement": "wound area", "setting": "[1]", "value": "Significant reduction in wound area"}
    ]}
  ]
}
